Measurements: patent US6593333B1, “Substituted anilino-quinazoline (or quinoline) compounds and use thereof” (Astrazeneca AB, priority 1998, dated 2003)

Experiments:
[1] = molecular target: T1, p38α (Homo sapiens, UniProt Q16539); assay: In vitro enzyme assay, p38α kinase; assay type: biochemical
T1 construct: c-myc (N); 6His (N); made in house; host or cells: E. coli (PET vectors)
Procedure: The ability of compounds of the invention to inhibit the enzyme p38 kinase was assessed. Activity of particular test compounds against each of the p38α and p38β isoforms of the enzyme was determined.
Human recombinant MKK6 (GenBank Accesion Number G1209672) was isolated from Image clone 45578 (Genomics, 1996, 33, 151) and utilised to produce protein in the form of a GST fusion protein in a pGEX vector using analogous procedures to those disclosed by J. Han et al., Journal of Biological Chemistry, 1996, 271, 2886-2891. p38α (GenBank Accession Number G529039) and p38β (GenBank Accession Number G1469305) were isolated by PCR amplification of human lymphoblastoid cDNA (GenBank Accession Number GM1416) and human foetal brain cDNA [synthesised from mRNA (Clontech, catalogue no. 6525-1) using a Gibco superscript cDNA synthesis kit] respectively using oligonucleotides designed for the 5′ and 3′ ends of the human p38α and p38β genes using analogous procedures to those described by J. Han et al., Biochimica et Biophysica Acta, 1995, 1265, 224-227 and Y. Jiang et al., Journal of Biological Chemistry, 1996, 271, 17920-17926.
Both p38 protein isoforms were expressed in e coli in PET vectors. Human recombinant p38α and p38β isoforms were produced as 5′ c-myc, 6His tagged proteins. Both MKK6 and the p38 proteins were purified using standard protocols: the GST MKK6 was purified using a glutathione sepharose column and the p38 proteins were purified using nickel chelate columns.
The p38 enzymes were activated prior to use by incubation with MKK6 for 3 hours at 30° C. The unactivated coli-expressed MKK6 retained sufficient activity to fully activate both isoforms of p38. The activation incubate comprised p38α (10 μl of 10 mg/ml) or p38β (10 μl of 5 mg/ml) together with MKK6 (10 μl of 1 mg/ml), ‘Kinase buffer’ [100 μl; pH 7.4 buffer comprising Tris (50 mM), EGTA (0.1 mM), sodium orthovanadate (0.1 mM) and β-mercaptoethanol (0.1%)] and MgATP (30 μl of 50 mM Mg(OCOCH3)2 and 0.5 mM ATP). This produced enough activated p38 enzyme for 3 Microtiter plates.
Test compounds were solubilised in DMSO and 10 μl of a 1:10 diluted sample in ‘Kinase Buffer’ was added to a well in a Microtiter plate. […] The precipitated protein was phosphorylated by p38 kinase and test compounds were assessed for their ability to inhibit this phosphorylation. The plates were filtered using a Canberra Packard Unifilter and washed with 2% TCA, dried overnight and counted on a Top Count scintillation counter.
Test compounds were tested initially at a single dose and active compounds were retested to allow IC50 values to be determined.

[2] = test system: TNFα production, human peripheral blood mononuclear cells; assay: PBMC test: inhibition of LPS-stimulated TNFα production; assay type: cell-based
Procedure: The ability of compounds of this invention to inhibit TNFα production was assessed by using human peripheral blood mononuclear cells which synthesise and secrete TNFα when stimulated with lipopolysaccharide.
Peripheral blood mononuclear cells (PBMC) were isolated from heparinised (10 units/ml heparin) human blood by density centrifugation (Lymphoprep™; Nycomed). Mononuclear cells were resuspended in culture medium [RPMI 1640 medium (Gibco) supplemented with 50 units/ml penicillin, 50 μg/ml streptomycin, 2 mM glutamine and 1% heat-inactivated human AB serum (Sigma H-1513)]. Compounds were solubilised in DMSO at a concentration of 50 mM, diluted 1:100 in culture medium and subsequently serial dilutions were made in culture medium containing 1% DMSO. PBMCs (2.4×10^5 cells in 160 μl culture medium) were incubated with 20 μl of varying concentrations of test compound (triplicate cultures) or 20 μl culture medium containing 1% DMSO (control wells) for 30 minutes at 37° C. in a humidified (5%CO2/95% air) incubator (Falcon 3072; 96 well flat-bottom tissue culture plates). 20 μl lipopolysaccharide [LPS E.Coli 0111:B4 (Sigma L-4130), final concentration 10 μg/ml] solubilised in culture medium was added to appropriate wells. 20 μl culture medium was added to “medium alone” control wells. Six “LPS alone” and four “medium alone” controls were included on each 96 well plate. Varying concentrations of a known TNFα inhibitor were included in each test, i.e. an inhibitor of the PDE Type IV enzyme (for example see Semmler, J. Wachtel. H and Endres, S., Int. J. Immunopharmac. (1993), 15(3), 409-413) or an inhibitor of pro TNFα convertase (for example, see McGeehan, G. M. et al. Nature (1994) 370, 558-561). Plates were incubated for 7 hours at 37° C. (humidified incubator) after which 100 μl of the supernatant was removed from each well and stored at −70° C. (96 well round-bottom plates; Corning 25850). TNFα levels were determined in each sample using a human TNFα ELISA (see WO92/10190 and Current Protocols in Molecular Biology, vol 2 by Frederick M. Ausbel et al., John Wiley and Sons Inc.).
% inhibition=(LPS alone−medium alone)−(test concentration−medium alone)/(LPS alone−medium alone)×100

T1 sequence (Q16539 whole entry): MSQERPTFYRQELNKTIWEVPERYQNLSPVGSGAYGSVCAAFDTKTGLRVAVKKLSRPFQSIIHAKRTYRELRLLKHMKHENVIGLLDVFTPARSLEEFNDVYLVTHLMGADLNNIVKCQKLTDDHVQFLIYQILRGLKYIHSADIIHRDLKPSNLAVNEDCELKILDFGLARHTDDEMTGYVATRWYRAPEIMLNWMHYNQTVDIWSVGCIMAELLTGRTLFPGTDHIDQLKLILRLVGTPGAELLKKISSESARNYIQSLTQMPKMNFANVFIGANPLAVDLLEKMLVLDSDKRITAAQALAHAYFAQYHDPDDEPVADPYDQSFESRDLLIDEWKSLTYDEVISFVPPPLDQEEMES

IC50 [1] | IC50 [2] | Structure (SMILES)
1.3 µM | 3.6 µM | COc1cc2ncnc(Nc3ccc(C)c(NC(=O)c4ccccc4)c3)c2cc1OC [Example 11]
3.4 µM | 3.2 µM | CCC(=O)Nc1cc(Nc2ncnc3cc(OC)c(OC)cc23)ccc1F [Example 14]
0.2 µM | 5.2 µM | COc1cc2c(Nc3cc(NC(=O)c4cccc(N(C)C)c4)ccc3C)ncnc2c(OC)c1OC [Example 24, 4-[2-Methyl-5-(3-dimethylaminobenzamido)anilino]-6,7,8-trimethoxyquinazoline]
0.1 µM | 2 µM | COc1cc2c(Nc3cc(NC(=O)c4cccc(N(C)C)c4)ccc3C)ncnc2cc1OCCCN1CCOCC1 [Example 38]
